Test results as given in patent US20110190336A1, “AZABENZIMIDAZOLONES” (CARA THERAPEUTICS, INC., priority 2008, published 2011).

These compounds were tested against T1, human DP2 receptor (Homo sapiens, UniProt Q9Y5Y4) (assay: Prostaglandin D2 binding inhibition assay (scintillation proximity assay, 3H PGD2, membranes of transfected CHO cells)). Settings: SPA, 5.5 nM 3H PGD2, CHO-K1 FLP-In human DP2 membranes; upper limit determinable 30 μM; read-out: IC50 ranges for inhibition of PGD2 binding to human DP2.
T1 construct: expressed in transfected cells; host or cells: CHO-K1 FLP-In (Invitrogen, catalog no. R758-07), stably transfected
T1 sequence (Q9Y5Y4 1-395): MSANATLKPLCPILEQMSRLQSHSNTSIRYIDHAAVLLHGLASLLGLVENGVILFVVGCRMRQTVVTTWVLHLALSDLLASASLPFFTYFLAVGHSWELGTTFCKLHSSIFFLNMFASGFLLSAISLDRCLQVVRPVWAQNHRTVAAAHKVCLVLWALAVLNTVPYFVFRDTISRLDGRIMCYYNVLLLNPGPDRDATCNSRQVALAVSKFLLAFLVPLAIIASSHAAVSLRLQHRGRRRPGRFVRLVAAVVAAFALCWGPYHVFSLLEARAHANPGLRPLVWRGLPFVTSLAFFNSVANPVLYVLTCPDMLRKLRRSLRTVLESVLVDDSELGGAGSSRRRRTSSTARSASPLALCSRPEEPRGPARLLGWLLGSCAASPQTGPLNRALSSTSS
Procedure, shortened: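 Membranes (5 μg) from CHO-K1 cells stably expressing human DP2 were mixed with WGA SPA beads and 5.5 nM 3H PGD2 in Tris buffer with 10 mM MgCl2, 100 mM NaCl, 0.1% BSA, plus compound. After 60 min at room temperature, CPM were read; IC50 from two-parameter nonlinear regression.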
Compound `O=C(O)Cn1c(=O)n(C2CCN(S(=O)(=O)c3ccc(Oc4ccccc4)cc3)CC2)c2ncccc21` [Compound 77, 2-(2-oxo-3-(1-(4-phenoxyphenyl-sulfonyl)piperidin-4-yl)-2,3-dihydro-1H-imidazo[4,5-b]pyridin-1-yl)acetic acid] has an IC50 of 1 to 10 µM.
In the case of `O=C(O)Cn1c(=O)n(C2CCN(S(=O)(=O)c3ccc(F)cc3Cl)CC2)c2ccncc21` [Compound 140, 2-(1-(1-(2-chloro-4-fluorophenylsulfonyl)piperidin-4-yl)-2-oxo-1H-imidazo[4,5-c]pyridin-3(2H)-yl)acetic acid], the IC50 is reported as > 30 µM.
For `CC(C)Oc1ccc(S(=O)(=O)N2CCC(n3c(=O)n(CC(=O)O)c4cc(F)cnc43)CC2)cc1` [Compound 73, 2-(6-fluoro-3-(1-(4-isopropoxyphenyl-sulfonyl)piperidin-4-yl)-2-oxo-2,3-dihydro-1H-imidazo[4,5-b]pyridin-1-yl)acetic acid], the IC50 was 10 to 30 µM.
With `O=C(O)Cn1c(=O)n(C2CCN(S(=O)(=O)c3ccc(Cl)cc3Cl)CC2)c2ncccc21` [Compound 31, 2-(3-(1-(2,4-dichlorophenyl-sulfonyl)piperidin-4-yl)-2-oxo-2,3-dihydro-1H-imidazo[4,5-b]pyridin-1-yl)acetic acid] the IC50 was < 1 µM.
In the case of `N#Cc1ccccc1S(=O)(=O)N1CCC(n2c(=O)n(CC(=O)O)c3cccnc32)CC1` [Compound 70, 2-(3-(1-(2-cyanophenylsulfonyl)piperidin-4-yl)-2-oxo-2,3-dihydro-1H-imidazo[4,5-b]pyridin-1-yl)acetic acid], the IC50 is reported as < 1 µM.
In the case of `CS(=O)(=O)c1ccccc1S(=O)(=O)N1CCC(n2c(=O)n(CC(=O)O)c3cnccc32)CC1` [Compound 143, 2-(1-(1-(2-(methylsulfonyl)phenylsulfonyl)piperidin-4-yl)-2-oxo-1H-imidazo[4,5-c]pyridin-3(2H)-yl)acetic acid], the IC50 is reported as > 30 µM.
Compound `Cc1ccc(S(=O)(=O)N2CCC(n3c(=O)n(CC(=O)O)c4cccnc43)CC2)cc1` [Compound 46, 2-(2-oxo-3-(1-(p-tolylsulfonyl)piperidin-4-yl)-2,3-dihydro-1H-imidazo[4,5-b]pyridin-1-yl)acetic acid] has an IC50 of 1 to 10 µM.
`Cc1ccc(S(=O)(=O)N2CCC[C@H](n3c(=O)n(CC(=O)O)c4cccnc43)C2)c(F)c1` [Compound 110, (S)-2-(3-(1-(2-fluoro-4-methylphenylsulfonyl)piperidin-3-yl)-2-oxo-2,3-dihydro-1H-imidazo[4,5-b]pyridin-1-yl)acetic acid] gave an IC50 of 1 to 10 µM.
With `Cc1cc(S(=O)(=O)N2CCC(n3c(=O)n(CC(=O)O)c4cccnc43)CC2)ccc1F` [Compound 95, 2-(3-(1-(4-fluoro-3-methylphenylsulfonyl)piperidin-4-yl)-2-oxo-2,3-dihydro-1H-imidazo[4,5-b]pyridin-1-yl)acetic acid] the IC50 was 1 to 10 µM.
Work on `O=C(O)Cn1c(=O)n(C2CCN(S(=O)(=O)c3ccc(F)cc3)CC2)c2ncccc21` [Compound 55, 2-(3-(1-(4-fluorophenylsulfonyl)piperidin-4-yl)-2-oxo-2,3-dihydro-1H-imidazo[4,5-b]pyridin-1-yl)acetic acid] yielded an IC50 of 1 to 10 µM.
In the case of `Cc1cc(F)ccc1S(=O)(=O)N1CCC(n2c(=O)n(CC(=O)O)c3cnccc32)CC1` [Compound 144, 2-(1-(1-(4-fluoro-2-methylphenylsulfonyl)piperidin-4-yl)-2-oxo-1H-imidazo[4,5-c]pyridin-3(2H)-yl)acetic acid], the IC50 is reported as > 30 µM.
In the case of `O=C(O)Cn1c(=O)n(C2CCN(S(=O)(=O)c3ccc(F)cc3Cl)CC2)c2cnccc21` [Compound 150, 2-(3-(1-(2-chloro-4-fluorophenylsulfonyl)piperidin-4-yl)-2-oxo-2,3-dihydro-1H-imidazo[4,5-c]pyridin-1-yl)acetic acid], the IC50 is reported as > 30 µM.
`O=C(O)Cn1c(=O)n(C2CCN(S(=O)(=O)c3cccc(OC(F)(F)F)c3)CC2)c2ncccc21` [Compound 45, 2-(2-oxo-3-(1-(3-(trifluoromethoxy)phenylsulfonyl)piperidin-4-yl)-2,3-dihydro-1H-imidazo[4,5-b]pyridin-1-yl)acetic acid] was tested, and the IC50 was 1 to 10 µM.
`O=C(O)Cn1c(=O)n(C2CCN(S(=O)(=O)c3cccc(C(F)(F)F)c3)CC2)c2ncccc21` [Compound 41, 2-(2-oxo-3-(1-(3-(trifluoromethyl)phenylsulfonyl)piperidin-4-yl)-2,3-dihydro-1H-imidazo[4,5-b]pyridin-1-yl)acetic acid] gave an IC50 of 1 to 10 µM.
For `O=C(O)Cn1c(=O)n(C2CCN(S(=O)(=O)c3cccc(Cl)c3)CC2)c2ncccc21` [Compound 37, 2-(3-(1-(3-chlorophenyl-sulfonyl)piperidin-4-yl)-2-oxo-2,3-dihydro-1H-imidazo[4,5-b]pyridin-1-yl)acetic acid], the IC50 was 1 to 10 µM.
With `O=C(O)Cn1c(=O)n([C@@H]2CCCN(S(=O)(=O)c3ccc(Cl)cc3Cl)C2)c2ncccc21` [Compound 115, (R)-2-(3-(1-(2,4-dichlorophenylsulfonyl)piperidin-3-yl)-2-oxo-2,3-dihydro-1H-imidazo[4,5-b]pyridin-1-yl)acetic acid] the IC50 was < 1 µM.
`Cc1cccc(CS(=O)(=O)N2CCC(n3c(=O)n(CC(=O)O)c4cccnc43)CC2)c1` [Compound 62, 2-(3-(1-(3-methylbenzylsulfonyl)piperidin-4-yl)-2-oxo-2,3-dihydro-1H-imidazo[4,5-b]pyridin-1-yl)acetic acid] gave an IC50 of 1 to 10 µM.
With `O=C(O)Cn1c(=O)n(C2CCN(S(=O)(=O)c3ccc(Cl)cc3Cl)CC2)c2cccnc21` [Compound 134, 2-(1-(1-(2,4-dichlorophenylsulfonyl)piperidin-4-yl)-2-oxo-1H-imidazo[4,5-b]pyridin-3(2H)-yl)acetic acid] the IC50 was > 30 µM.
Work on `O=C(O)Cn1c(=O)n(C2CCC(NS(=O)(=O)c3ccc(Cl)cc3Cl)CC2)c2ncccc21` (centres unmarked) [Compound 106, 2-(3-(4-(2,4-dichlorophenylsulfonamido)cyclohexyl)-2-oxo-2,3-dihydro-1H-imidazo[4,5-b]pyridin-1-yl)acetic acid] yielded an IC50 of 1 to 10 µM.
For `Cc1ccccc1S(=O)(=O)N1CCC(n2c(=O)n(CC(=O)O)c3cccnc32)CC1` [Compound 94, 2-(2-oxo-3-(1-(o-tolylsulfonyl)piperidin-4-yl)-2,3-dihydro-1H-imidazo[4,5-b]pyridin-1-yl)acetic acid], the IC50 was < 1 µM.
With `CCS(=O)(=O)N1CCC(n2c(=O)n(CC(=O)O)c3cccnc32)CC1` [Compound 43, 2-(3-(1-(ethylsulfonyl)piperidin-4-yl)-2-oxo-2,3-dihydro-1H-imidazo[4,5-b]pyridin-1-yl)acetic acid] the IC50 was 10 to 30 µM.
Compound `O=C(O)Cn1c(=O)n([C@H]2CCCN(S(=O)(=O)c3ccc(Cl)cc3Cl)C2)c2ncccc21` [Compound 109, (S)-2-(3-(1-(2,4-dichlorophenylsulfonyl)piperidin-3-yl)-2-oxo-2,3-dihydro-1H-imidazo[4,5-b]pyridin-1-yl)acetic acid] has an IC50 of 1 to 10 µM.
With `O=C(O)Cn1c(=O)n(C2CCN(S(=O)(=O)c3ccccc3[N+](=O)[O-])CC2)c2ncccc21` [Compound 67, 2-(3-(1-(2-nitrophenylsulfonyl)piperidin-4-yl)-2-oxo-2,3-dihydro-1H-imidazo[4,5-b]pyridin-1-yl)acetic acid] the IC50 was < 1 µM.
Compound `O=C(O)Cn1c(=O)n(C2CCN(S(=O)(=O)c3ccc(C(F)(F)F)cc3)CC2)c2ncccc21` [Compound 39, 2-(2-oxo-3-(1-(4-(trifluoromethyl)phenylsulfonyl)piperidin-4-yl)-2,3-dihydro-1H-imidazo[4,5-b]pyridin-1-yl)acetic acid] has an IC50 of 1 to 10 µM.
In the case of `Cc1cnc2c(c1)n(CC(=O)O)c(=O)n2C1CCN(S(=O)(=O)c2ccc(F)cc2C)CC1` [Compound 125, 2-(3-(1-(4-fluoro-2-methylphenylsulfonyl)piperidin-4-yl)-6-methyl-2-oxo-2,3-dihydro-1H-imidazo[4,5-b]pyridin-1-yl)acetic acid], the IC50 is reported as 10 to 30 µM.
`O=C(O)Cn1c(=O)n(C2CCN(S(=O)(=O)c3ccsc3)CC2)c2ncccc21` [Compound 60, 2-(2-oxo-3-(1-(thiophen-3-ylsulfonyl)piperidin-4-yl)-2,3-dihydro-1H-imidazo[4,5-b]pyridin-1-yl)acetic acid] showed an IC50 of 1 to 10 µM.
